Test results taken from US20160000803A1, “PHARMACEUTICAL COMPOSITION FOR TRANSMUCOSAL ADMINISTRATION OF BENZODIAZEPINES” (EASTGATE PHARMACEUTICALS INC., priority 2013, published 2016).
Like-named read-outs stand apart in the source and are kept apart here.

What was measured:
[1] = Method: After combining of pre-weighed amounts of components they were gently triturated at room temperature (20-22° C.) using a stainless steel spatula until liquid phase is formed.
PTZ induced seizures = assay: Timed intravenous PTZ infusion test (ivPTZ); format: in vivo, mice
Text: For investigation of anti-seizure activity of invented formulations, a timed intravenous PTZ infusion test was employed.
The technique of timed i.v. PTZ (pentylenetetrazole) infusion test (ivPTZ) is a simple, reproducible and fast method for assessment of onset, peak, duration and potency of various anticonvulsants and proconvulsants in animals. This test provides an extremely sensitive parametric method for assessing seizure threshold in individual animals and a quantifiable endpoint can be obtained with a minimal number of animals. Different seizure types can be chosen as endpoint in this test. Usually, the first seizure occurring during the PTZ infusion is a myoclonic twitch, followed by clonic and, later, tonic seizures.
This method offers many advantages over the more widely used classical subcutaneous PTZ (scPTZ) test. Since with ivPTZ, test effects based on different endpoints are measured in individual animals, the number of animals required for a proper evaluation is much lower than would be needed for standard scPTZ test. […]
During the infusion, mice are observed for the onset of different types of seizures. The time latencies from the start of infusion to the appearance of the first clonus (characterized by rapid involuntary rhythmic contraction and relaxation of limbs), lasting longer than 5 seconds, are recorded. […]

seizures = conditions: intranasal, human patients; cited from earlier work

SMILES | increase of solubility ([1]; MCT oil + 5% Menthol by weight vs pure MCT oil) [%] | increase of solubility ([1]; MCT with 8% Menthol vs pure MCT oil) [%] | PTZ dose threshold (PTZ induced seizures; intraperitoneal 2.5 mg/kg, 5 minutes time point, infusion 0.3 ml/min, PTZ 10 mg/ml) [mg/kg] | time of maximal protection (PTZ induced seizures; parenterally administered) | onset of action (seizures)
O=C1Nc2ccc(Cl)cc2C(c2ccccc2Cl)=NC1O (centres unmarked) [Lorazepam] | 28 | ~60 | 100 to 120 | approximately 5 minutes | 
Cc1ncc2n1-c1ccc(Cl)cc1C(c1ccccc1F)=NC2 [Midazolam] |  |  |  |  | approximately 10 minutes
